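Cultured in 96-well plates, cells were exposed to test compound for 48 hours across five concentrations. Here, GI50 denotes the concentration required for 50% inhibition of growth.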 The source made the active and inactive calls. Rule as the data show it: active = GI50 up to about 1.1 µM and inactive = higher.
Tests used:
Test in all cases: NCI anticancer screen, dose series, 48 h
[1] = tested on: A498
[2] = tested on: COLO 205
[3] = tested on: DU-145
[4] = tested on: HCC 2998
[5] = tested on: HCT-116
[6] = tested on: HL-60
[7] = tested on: HT-29
[8] = tested on: K562
[9] = tested on: MCF7
[10] = tested on: MOLT-4
[11] = tested on: NCI-H23
[12] = tested on: PC-3
[13] = tested on: RXF 393
[14] = tested on: SK-MEL-2
[15] = tested on: SK-OV-3
[16] = tested on: SNB-75
[17] = tested on: SR
[18] = tested on: HOP-92

Row | SMILES | GI50 [1] | GI50 [2] | GI50 [3] | GI50 [4] | GI50 [5] | GI50 [6] | GI50 [7] | GI50 [8] | GI50 [9] | GI50 [10] | GI50 [11] | GI50 [12] | GI50 [13] | GI50 [14] | GI50 [15] | GI50 [16] | GI50 [17] | GI50 [18]
1 | COc1c2c(c3c(c1CCC(=O)O)OC(C)(C)C=C3)OC(C)(C)C=C2 | > 100 µM (inactive) | > 100 µM (inactive) | > 100 µM (inactive) | > 100 µM (inactive) | 94.8 µM (inactive) | 50.8 µM (inactive) | > 100 µM (inactive) | 55.8 µM (inactive) | > 100 µM (inactive) | 65.9 µM (inactive) | > 100 µM (inactive) | > 100 µM (inactive) | > 100 µM (inactive) | > 100 µM (inactive) | > 100 µM (inactive) | > 100 µM (inactive) | > 100 µM (inactive) | –
2 | CCCCN(CCCC)c1ccc(/N=N/c2ccc(S(=O)(=O)O)cc2)cc1 | 31.4 µM (inactive) | 18.7 µM (inactive) | 39.2 µM (inactive) | 24 µM (inactive) | 15.6 µM (inactive) | 19.8 µM (inactive) | 26.4 µM (inactive) | 26.9 µM (inactive) | 21.9 µM (inactive) | 17.7 µM (inactive) | 20.6 µM (inactive) | 25.8 µM (inactive) | 14.4 µM (inactive) | 51.1 µM (inactive) | 25.5 µM (inactive) | 11.7 µM (inactive) | – | 7 µM (inactive)
3 | CCCCCC(=O)n1[nH]c(=O)n(-c2ccc(OC)cc2)c1=O | – | > 100 µM (inactive) | > 100 µM (inactive) | > 100 µM (inactive) | > 100 µM (inactive) | > 100 µM (inactive) | > 100 µM (inactive) | > 100 µM (inactive) | > 100 µM (inactive) | > 100 µM (inactive) | > 100 µM (inactive) | > 100 µM (inactive) | > 100 µM (inactive) | > 100 µM (inactive) | > 100 µM (inactive) | > 100 µM (inactive) | > 100 µM (inactive) | –
4 | CN1CCN(Cn2nc(COc3ccc(Cl)cc3)n(/N=C/c3ccc(-c4ccc(Cl)cc4Cl)o3)c2=S)CC1 | 18.3 µM (inactive) | – | 11.9 µM (inactive) | 3.18 µM (inactive) | 13.4 µM (inactive) | – | 3.7 µM (inactive) | 15.2 µM (inactive) | 8.32 µM (inactive) | 16.7 µM (inactive) | – | 11.2 µM (inactive) | 2.33 µM (inactive) | 18.3 µM (inactive) | 15.7 µM (inactive) | – | 2.63 µM (inactive) | 8.47 µM (inactive)
5 | C=C1CN(Cc2ccccc2)[C@@H]2CCCCC[C@H](C#N)[C@H]12 | > 100 µM (inactive) | > 100 µM (inactive) | > 100 µM (inactive) | > 100 µM (inactive) | > 72.4 µM (inactive) | – | > 67.5 µM (inactive) | 47.2 µM (inactive) | > 100 µM (inactive) | 24.3 µM (inactive) | > 93.1 µM (inactive) | > 74.1 µM (inactive) | > 60.8 µM (inactive) | > 100 µM (inactive) | > 86.9 µM (inactive) | > 100 µM (inactive) | > 47.8 µM (inactive) | 36.3 µM (inactive)
6 | O=S(=O)(O)c1ccc(O)c2ncc(Cl)cc12 | > 100 µM (inactive) | > 100 µM (inactive) | > 100 µM (inactive) | > 100 µM (inactive) | > 100 µM (inactive) | – | > 100 µM (inactive) | > 100 µM (inactive) | > 100 µM (inactive) | > 100 µM (inactive) | > 100 µM (inactive) | > 100 µM (inactive) | > 100 µM (inactive) | > 100 µM (inactive) | – | > 100 µM (inactive) | > 100 µM (inactive) | > 100 µM (inactive)
7 | CC1CN=C(Nc2cccc(F)c2)S1 (stereo not given) | – | > 100 µM (inactive) | > 100 µM (inactive) | > 100 µM (inactive) | > 100 µM (inactive) | > 100 µM (inactive) | > 100 µM (inactive) | > 100 µM (inactive) | > 100 µM (inactive) | – | > 100 µM (inactive) | > 100 µM (inactive) | > 100 µM (inactive) | > 100 µM (inactive) | > 100 µM (inactive) | > 100 µM (inactive) | 7.87 µM (inactive) | > 100 µM (inactive)
8 | CCN(CC)CCN1C(=O)C(=O)N(c2cccc3ccccc23)C1=O | > 10 µM (inactive) | > 10 µM (inactive) | > 10 µM (inactive) | > 10 µM (inactive) | > 10 µM (inactive) | > 10 µM (inactive) | > 10 µM (inactive) | > 10 µM (inactive) | > 10 µM (inactive) | > 10 µM (inactive) | > 10 µM (inactive) | > 10 µM (inactive) | > 10 µM (inactive) | > 10 µM (inactive) | > 10 µM (inactive) | > 10 µM (inactive) | > 10 µM (inactive) | –
9 | CCOc1cc(C(=O)O)c2c(ccc3ccc(OC)c(OC)c32)c1OC | – | > 100 µM (inactive) | > 100 µM (inactive) | > 100 µM (inactive) | > 100 µM (inactive) | > 100 µM (inactive) | > 100 µM (inactive) | > 100 µM (inactive) | > 100 µM (inactive) | > 100 µM (inactive) | > 100 µM (inactive) | > 100 µM (inactive) | > 100 µM (inactive) | > 100 µM (inactive) | > 100 µM (inactive) | > 100 µM (inactive) | > 100 µM (inactive) | > 100 µM (inactive)
10 | CCOC(=O)C(C)c1nc2cc(F)c(N3CCOCC3)cc2[nH]c1=O (stereo not given) | > 100 µM (inactive) | > 100 µM (inactive) | > 100 µM (inactive) | > 100 µM (inactive) | > 100 µM (inactive) | – | > 100 µM (inactive) | > 100 µM (inactive) | > 100 µM (inactive) | 85.9 µM (inactive) | > 100 µM (inactive) | 71.9 µM (inactive) | > 100 µM (inactive) | > 100 µM (inactive) | > 100 µM (inactive) | > 100 µM (inactive) | > 100 µM (inactive) | > 100 µM (inactive)
11 | [O-][S+](Nc1ccccc1)c1ccccc1Oc1ccccc1 (stereo not given) | – | > 100 µM (inactive) | > 100 µM (inactive) | 24.3 µM (inactive) | 34.1 µM (inactive) | 25.5 µM (inactive) | 60.5 µM (inactive) | 48.6 µM (inactive) | 60 µM (inactive) | 19.1 µM (inactive) | 29.8 µM (inactive) | 39.2 µM (inactive) | 48.2 µM (inactive) | – | – | 28.6 µM (inactive) | 7.41 µM (inactive) | –
12 | Nc1ccc(-c2nc3ccc(F)cc3s2)cc1I | > 100 µM (inactive) | > 100 µM (inactive) | > 100 µM (inactive) | 0.121 µM (active) | < 0.01 µM (active) | – | 56.1 µM (inactive) | > 100 µM (inactive) | < 0.01 µM (active) | 12.4 µM (inactive) | > 100 µM (inactive) | > 100 µM (inactive) | > 26.1 µM (inactive) | > 100 µM (inactive) | 97.3 µM (inactive) | 30.8 µM (inactive) | > 76.2 µM (inactive) | 24.8 µM (inactive)

From ChEMBL document CHEMBL1201862, “PubChem BioAssay data set” (2004)
